# Measured values taken from patent publication US20150099645A1, “MEANS AND METHODS FOR DIAGNOSTICS AND TH[…] DISEASES” (priority 2012, published 2015).
# Columns and labels:
# T cells (CD3+) = assay: GVHD mouse model, LiCl treatment of allogeneic mice, CD3+ T cells of spleen counted by flow cytometry; type: in vivo; conditions: 2.0 mg/kg LiCl once a day, day 3 post-transplant
# Description: Mice are divided into 3 groups (Untreated, Syngeneic and Allogeneic) per time point with 6-12 mice per group. The untreated group mice (without irradiation) were injected with plain medium. The syngeneic group irradiated (600 rads) Balb/c mice were injected with splenocytes (30×10̂6) from matched donor Balb/c mice. The allogeneic group irradiated (600 rads) Balb/c mice were injected with splenocytes (30×10̂6) from unmatched donor C57Bl/6 mice. An additional 2-3 mice in each group were injected with 2.0 mg/kg LiCl (dissolved 1:2 LiCl:PBS), once a day from day 1 to day 5 post-transplant, sacrificed at days 3 and 5.
# Total T cells (CD3+) were collected from spleens of mice of the 3 groups of the GVHD model as described above. Cells were stained for CD3 and counted by Flow Cytometry.
# In order to explore the effect of GSK-3β activation state on T-cell proliferation, the GVHD model mice were treated with Lithium chloride (LiCl). Lithium chloride (LiCl) is known to affect GSK-3β activation state by regulating its phosphorylation state. Lithium chloride (LiCl) treatments were given to a separate group of allogeneic mice.
# [1] = tested on: C57Bl/6 and Balb/c splenocytes; assay: Mixed lymphocyte reaction, XTT proliferation assay; type: cell-based, mouse; conditions: for proliferation level: versus control (0 mM)
# Description: Splenocytes were harvested from untreated Balb/c and C57BL/6 mice. C57BL/6 cells were incubated in a flat bottom 96 well plate for 96 h with either irradiated (1500 rads) or not irradiated Balb/c cells as indicated, at the indicated concentrations. XTT reagent for proliferation assay was added 24 h before reading. Plate was read at 620 nm.
# Splenocytes were collected from spleens of C57Bl/6 and Balb/c mice and cultured ex-vivo and assayed for proliferation by XTT (tetrazolium salt). The C57Bl/6 and Balb/c cells were cultured ex-vivo together to mimic a GVHD reaction. The cells were cultured in 3 groups, having different cell concentrations: • 2×2: 2×10̂5 C57Bl/6 and 2×10̂5 balb/c cells • 1×1: 1×10̂5 C57Bl/6 and 1×10̂5 balb/c cells • 2×*2: 2×10̂5 C57Bl/6 and 2×10̂5 irradiated balb/c cells
# In order to test the effect of GSK-3β activation state on cell proliferation, Lithium Chloride (a known inhibitor of GSK-3β) was added at different concentrations. […] Furthermore, it can be seen that the effect of LiCl depends on the confluence (concentration) of cells.
compound,measurement,setting,value
"[Cl-].[Li+] [LiCl, Lithium chloride]",amount of T-cells,T cells (CD3+),increased
same,proliferation level,"[1]; 12.5 mM LiCl, 2×2 group (2×10^5 C57Bl/6 and 2×10^5 balb/c cells)",significantly lower
same,proliferation level,"[1]; 25 mM LiCl, 1×1 group (1×10^5 C57Bl/6 and 1×10^5 balb/c cells)",significantly higher
same,proliferation level,"[1]; 25 mM LiCl, 2×2 group",significantly higher
same,effect on proliferation,[1]; doses smaller than 12.5 mM,no apparent effect
